{"source": "patent EP0768085A1", "about": "“ANTIBACTERIAL AGENT” (DAIICHI PHARMACEUTICAL CO., LTD., priority 1994, dated 1996)", "format_in_all_cases": "cell-based", "key": {"[1]": {"tested_on": "Staphylococcus aureus 209-P", "test": "Antibacterial activity (IC), Mueller-Hinton broth, 96-well microplate (Example 4, Table 39)", "conditions": "37°C, 18 hours", "experimental": "(§1) A suitable amount of a sample was dissolved in dimethylsulfoxide (DMSO), and the resultant solution was diluted with the same amount of sterilized distilled water to prepare a bulk sample of 1,000 µg/ml. Mueller-Hinton broth (product of DIFCO) was dispensed into each well of 96-well microplate. Thereafter, the bulk specimen was added to the first well of a row, and successively diluted (10-fold each time) with sterilized distilled water. Separately, a bacterial cell suspension for the test (Staphylococcus aureus 209-P) which had been cultured in the above-mentioned broth overnight at 37°C was inoculated to each well so that the final inoculation amount of 10^6 CFU/ml was attained. The final concentrations of the samples were 100, 10, and 1 µg/ml.\n(§2) The antibacterial action was evaluated by the inhibitory concentration (hereinafter abbreviated as IC) at which propagation of the bacteria cultured at 37°C for 18 hours was inhibited. Inhibition was determined by the turbidity of the medium. The expressions \"IC≤100\", \"≤10\", and \"≤1\" indicate that MIC-equivalent values obtained at the succesive […] dilution of the sample are 100-10 µg/ml, 10-1 µg/ml, and not more than 1 µg/ml, respectively. […] (In the subsequent Examples, the same rule applies correspondingly.) Table 39"}, "[2]": {"tested_on": "Bordetella bronchiseptica (SM2-4)", "test": "Antibacterial activity (IC), broth microplate as in Example 4 (Example 7, Table 42)", "conditions": "for MIC: 18 h", "experimental": "as §1, §2\nIn a manner similar to that described in Example 4, antibacterial activity of the invention compound was determined. The bacterium used for the test was Bordetella bronchiseptica (SM2-4)."}, "[3]": {"tested_on": "Staphylococcus aureus TI-1", "test": "Antibacterial activity (IC), broth microplate as in Example 4 (Example 5, Table 40)", "conditions": "for MIC: TI1, 18 h", "experimental": "as §1, §2\nIn a manner similar to that described in Example 4, antibacterial activity of the invention compound was determined. The bacterium used for the test was Staphylococcus aureus TI-1."}, "Pasteurella from fish": {"tested_on": "Pasteurella from fish", "test": "Antibacterial activity (IC), agar as in Example 8, media with 1.5% NaCl, 25°C (Example 20, Tables 53-55)", "how_it_was_run": "(§3)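 Growth inhibition was scored by turbidity after culture at 25°C, with IC bands set from 2-fold-dilution MIC-equivalents. Samples were tested at final 100, 10 and 1 µg/ml in Mueller-Hinton agar with 1.5% NaCl, seeded with 10^6 CFU/ml of the fish isolates.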"}, "Enterococcus from fish": {"tested_on": "Enterococcus from fish", "test": "Antibacterial activity (IC), agar as in Example 8, media with 1.5% NaCl, 25°C (Example 20, Tables 53-55)", "how_it_was_run": "as §3"}, "[4]": {"tested_on": "methicillin-resistant Staphylococcus aureus (MRSA) isolated from humans", "test": "Antibacterial activity (IC), Mueller-Hinton agar containing the sample (Example 8, Table 43)", "conditions": "18 hours", "experimental": "as §2\nA suitable amount of a sample was dissolved in dimethylsulfoxide (DMSO), after which the resulting solution was diluted with the same amount of sterilized distilled water to prepare a bulk sample of 1,000 µg/ml. Separately, a bacterial liquid for the test (methicillin-resistant Staphylococcus aureus (MRSA) isolated from humans) which had been cultured in Mueller-Hinton broth (product of DIFCO) was prepared and inoculated to a Mueller-Hinton agar (product of DIFCO) containing the sample so that the final inoculation amount of 10^6 CFU/ml was achieved. The final concentrations of the samples were 100, 10, and 1 µg/ml.\nAfter culturing at 37°C for 18 hours, the antibacterial activity was evaluated in terms of IC in a manner similar to that described in Example 4."}, "[5]": {"tested_on": "Pasteurella multocida (Kobe-6)", "test": "Antibacterial activity (IC), broth microplate as in Example 4 (Example 6, Table 41)", "conditions": "origin pig; for MIC: 18 h", "experimental": "as §1, §2\nIn a manner similar to that described in Example 4, antibacterial activity of the invention compound was determined. The bacterium used for the test was Pasteurella Kobe-6 (origin: pig; Pasteurella multocida)."}}, "data": [{"molecule": "4-[2-(2-chloro-4-trifluoromethylphenoxy)-4-methylphenoxy]-2-(3,4-dichlorophenyl)-3-oxopentanonitrile and 4-[2-(2-chloro-4-trifluoromethylphenoxy)-5-methylphenoxy]-2-(3,4-dichlorophenyl)-3-oxopentanonitrile [Compound No. 308]", "values": [{"measurement": "IC", "setting": "[1]", "result": "308 (≤1) (not more than 1 µg/ml)"}, {"measurement": "IC", "setting": "[2]", "result": "308 (≤100) (MIC-equivalent values obtained at the succesive 2-fold dilution of the sample are 100-10 µg/ml)"}, {"measurement": "IC", "setting": "[3]", "result": "308 (≤1) (not more than 1 µg/ml)"}, {"measurement": "IC", "setting": "Pasteurella from fish; Pasteurella piscicida KP94-02", "result": "≤"}, {"measurement": "IC", "setting": "Pasteurella from fish; Pasteurella piscicida KP94-04", "result": "≤"}, {"measurement": "IC", "setting": "Pasteurella from fish; Pasteurella piscicida KP94-05", "result": "≤"}, {"measurement": "IC", "setting": "Pasteurella from fish; Pasteurella piscicida KP94-06", "result": "≤"}, {"measurement": "IC", "setting": "Enterococcus from fish; Enterococcus Seriolicida HI", "result": "≤ 1", "unit": "µg/mL"}, {"measurement": "IC", "setting": "Enterococcus from fish; Enterococcus Seriolicida KG86050", "result": "≤ 1", "unit": "µg/mL"}, {"measurement": "IC", "setting": "Enterococcus from fish; Enterococcus Seriolicida MS89060", "result": "≤ 1", "unit": "µg/mL"}, {"measurement": "IC", "setting": "Enterococcus from fish; Enterococcus Seriolicida MS89064", "result": "≤ 1", "unit": "µg/mL"}, {"measurement": "IC", "setting": "Enterococcus from fish; Enterococcus Seriolicida MS89066", "result": "≤ 1", "unit": "µg/mL"}, {"measurement": "IC", "setting": "Enterococcus from fish; Enterococcus Seriolicida MS89068", "result": "≤ 1", "unit": "µg/mL"}, {"measurement": "IC", "setting": "Enterococcus from fish; Enterococcus Seriolicida SE94-001", "result": "≤ 1", "unit": "µg/mL"}, {"measurement": "IC", "setting": "Enterococcus from fish; Enterococcus Seriolicida SE94-002", "result": "≤ 1", "unit": "µg/mL"}, {"measurement": "IC", "setting": "Enterococcus from fish; Enterococcus Seriolicida SE94-003", "result": "≤ 1", "unit": "µg/mL"}, {"measurement": "IC", "setting": "Enterococcus from fish; Enterococcus Seriolicida SE94-004", "result": "≤ 1", "unit": "µg/mL"}, {"measurement": "IC", "setting": "Enterococcus from fish; Enterococcus Seriolicida SE94-005", "result": "≤ 1", "unit": "µg/mL"}, {"measurement": "IC", "setting": "[4]; MRSA strain 891179, 37°C", "result": "≤ 1", "unit": "µg/mL"}, {"measurement": "IC", "setting": "[4]; MRSA strain 891185, 37°C", "result": "≤ 1", "unit": "µg/mL"}, {"measurement": "IC", "setting": "[4]; MRSA strain 891187, 37°C", "result": "≤ 1", "unit": "µg/mL"}, {"measurement": "IC", "setting": "[4]; MRSA strain 891192, 37°C", "result": "≤ 1", "unit": "µg/mL"}, {"measurement": "IC", "setting": "[4]; MRSA strain 900048, 37°C", "result": "≤ 1", "unit": "µg/mL"}, {"measurement": "IC", "setting": "[4]; MRSA strain 900056, 37°C", "result": "≤ 1", "unit": "µg/mL"}, {"measurement": "IC", "setting": "[5]", "result": "308 (≤10) (10-1 µg/ml)"}]}, {"molecule": "CC(Oc1ccc(Oc2ccc(C(F)(F)F)cn2)cc1)C(=O)C(C#N)c1ccc(Cl)cc1Cl", "note": "(stereo not shown) [Compound No. 1]", "values": [{"measurement": "MIC", "setting": "[1]", "result": "1 to 10", "unit": "µg/mL"}, {"measurement": "MIC", "setting": "[3]", "result": "1 to 10", "unit": "µg/mL"}, {"measurement": "MIC", "setting": "[5]", "result": "10 to 100", "unit": "µg/mL"}]}, {"molecule": "CC(Oc1ccc(Oc2ncc(C(F)(F)F)cc2Cl)cc1)C(=O)C(C#N)c1ccc(Cl)cc1Cl", "note": "(stereo not shown) [Compound No. 2, 4-[4-(3-chloro-5-trifluoromethyl-2-pyridyloxy)phenoxy]-2-(2,4-dichlorophenyl)-3-oxopentanonitrile]", "values": [{"measurement": "MIC", "setting": "[1]", "result": "10 to 100", "unit": "µg/mL"}, {"measurement": "MIC", "setting": "[2]", "result": "10 to 100", "unit": "µg/mL"}, {"measurement": "MIC", "setting": "[3]", "result": "1 to 10", "unit": "µg/mL"}, {"measurement": "MIC", "setting": "[5]", "result": "10 to 100", "unit": "µg/mL"}]}, {"molecule": "CC(Oc1ccc(Oc2ncc(C(F)(F)F)cc2Cl)cc1)C(=O)C(C#N)c1cccc(Cl)c1", "note": "(stereo not shown) [Compound No. 10]", "values": [{"measurement": "MIC", "setting": "[1]", "result": "1 to 10", "unit": "µg/mL"}, {"measurement": "MIC", "setting": "[3]", "result": "1 to 10", "unit": "µg/mL"}, {"measurement": "MIC", "setting": "[5]", "result": "10 to 100", "unit": "µg/mL"}]}, {"molecule": "CCC(Oc1ccc(Oc2ncc(C(F)(F)F)cc2Cl)cc1)C(=O)C(C#N)c1ccc(Cl)cc1Cl", "note": "(stereo not shown) [Compound No. 15]", "values": [{"measurement": "MIC", "setting": "[1]", "result": "1 to 10", "unit": "µg/mL"}, {"measurement": "MIC", "setting": "[3]", "result": "1 to 10", "unit": "µg/mL"}, {"measurement": "MIC", "setting": "[5]", "result": "10 to 100", "unit": "µg/mL"}]}, {"molecule": "N#CC(C(=O)COc1ccc(Oc2ncc(C(F)(F)F)cc2Cl)cc1)c1ccc(Cl)cc1Cl", "note": "(stereo not shown) [compound 9]", "values": [{"measurement": "MIC", "setting": "[2]", "result": "10 to 100", "unit": "µg/mL"}]}, {"molecule": "CC(Oc1ccc(Oc2ncc(C(F)(F)F)cc2Cl)cc1)C(=O)C(C#N)c1cccc2ccccc12", "note": "(stereo not shown) [compound 14]", "values": [{"measurement": "MIC", "setting": "[1]", "result": "10 to 100", "unit": "µg/mL"}, {"measurement": "MIC", "setting": "[2]", "result": "10 to 100", "unit": "µg/mL"}, {"measurement": "MIC", "setting": "[3]", "result": "10 to 100", "unit": "µg/mL"}]}, {"molecule": "Cc1cccc(C(C#N)C(=O)C(C)Oc2ccc(Oc3ncc(C(F)(F)F)cc3Cl)cc2)c1", "note": "(stereo not shown) [compound 16]", "values": [{"measurement": "MIC", "setting": "[1]", "result": "10 to 100", "unit": "µg/mL"}, {"measurement": "MIC", "setting": "[2]", "result": "10 to 100", "unit": "µg/mL"}, {"measurement": "MIC", "setting": "[3]", "result": "1 to 10", "unit": "µg/mL"}, {"measurement": "MIC", "setting": "[5]", "result": "10 to 100", "unit": "µg/mL"}]}]}
